Patent US20220324865A1 (Bayer Aktiengesellschaft, priority 2018, published 2022)

The molecules below were run against T1, human EP3 receptor (Homo sapiens, UniProt P43115) (assay: Cellular in vitro assay for determining EP3 receptor activity (human EP3 cell line, sulprostone-stimulated calcium luminescence)). Details: CHO cells expressing human EP3 and mitochondrial Clytin; antagonist mode, sulprostone at EC50; read-out: EP3 CHO mtCLY ANTAG IC50.
T1 construct: expressed in transfected cells; host or cells: CHO K1 (Chinese Hamster Ovary), stably co-transfected with Galpha16 and mitochondrial clytin
T1 sequence (P43115 1-390): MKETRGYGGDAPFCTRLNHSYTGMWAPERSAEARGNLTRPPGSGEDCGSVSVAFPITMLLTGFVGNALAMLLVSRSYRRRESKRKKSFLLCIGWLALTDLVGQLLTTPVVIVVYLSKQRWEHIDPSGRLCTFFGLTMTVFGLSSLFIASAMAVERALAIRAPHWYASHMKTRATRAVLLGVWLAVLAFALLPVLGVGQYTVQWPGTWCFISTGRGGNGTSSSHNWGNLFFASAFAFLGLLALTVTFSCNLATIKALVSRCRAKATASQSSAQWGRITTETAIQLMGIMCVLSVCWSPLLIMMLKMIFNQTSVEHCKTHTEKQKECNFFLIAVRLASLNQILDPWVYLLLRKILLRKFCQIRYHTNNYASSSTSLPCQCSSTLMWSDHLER
Type: cell-based
Method in brief: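 CHO K1 cells stably expressing human EP3 with Gα16 and mitochondrial Clytin, loaded overnight with coelenterazine. Compounds added 10 min before sulprostone at its EC50; antagonism read immediately as reduced calcium-driven luminescence, quadruplicate points.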
Work on `Cc1ccc(-c2cn3nc(C(=O)NC(C)c4ccc(O)cc4)cc3c(=O)[nH]2)cc1C` (stereo not shown) [Example 1-137, 6-(3,4-Dimethylphenyl)-N-[1-(4-hydroxphenyl)ethyl]-4-oxo-5H-pyrazolo[1,5-a]pyrazine-2-carboxamide] yielded an IC50 of 2.9 nM.
`COC[C@@H](NC(=O)c1nn2cc(-c3ccc(C(F)(F)F)c(C)c3)[nH]c(=O)c2c1C1CC1)c1ccccc1` [6-135] was tested, and the IC50 was 2.55 nM.
For `CC(C)(O)[C@@H](NC(=O)c1nn2cc(-c3ccc(Cl)c(F)c3)[nH]c(=O)c2c1C(F)F)c1ccc(F)cc1` [6-632], the IC50 was 6.3 nM.
In the case of `Cc1cccc2ncc(-c3cn4nc(C(=O)NC5(c6ccccc6)CCOCC5)c(C(C)C)c4c(=O)[nH]3)cc12` [Example 4-77, 3-Isopropyl-6-(5-methylquinolin-3-yl)-4-oxo-N-(4-phenyltetrahydro-2H-pyran-4-yl)-4,5-dihydropyrazolo[1,5-a]pyrazine-2-carboxamide], the IC50 is reported as 0.835 nM.
Work on `Cc1cc(-c2cn3nc(C(=O)NCC(N)C(F)(F)F)c(C4CC4)c3c(=O)[nH]2)ccc1C(F)(F)F` (single isomer, unassigned) [6-131] yielded an IC50 of 10.1 nM.
With `N#Cc1c(C(=O)NCCn2ccc(C3CC3)n2)nn2cc(-c3ccc4ccccc4c3)[nH]c(=O)c12` [Example 3-77, 3-Cyano-N-[2-(3-cyclopropyl-1H-pyrazol-1-yl)ethyl]-6-(naphthalen-2-yl)-4-oxo-4,5-dihydropyrazolo[1,5-a]pyrazine-2-carboxamide] the IC50 was 4.65 nM.
Work on `Cc1ccc(-c2cn3nc(C(=O)NCC(C)(N)C(F)(F)F)c(C(F)(F)F)c3c(=O)[nH]2)cc1Cl` (single isomer, unassigned) [6-171] yielded an IC50 of 2.3 nM.
For `COC[C@@H](NC(=O)c1nn2cc(-c3ccc(C)c(C)c3)[nH]c(=O)c2c1C#N)c1ccccc1` [Example 1-74, 3-Cyano-6-(3,4-dimethylphenyl)-N-[(1S)-2-methoxy-1-phenylethyl]-4-oxo-4,5-dihydropyrazolo-[1,5-a]pyrazine-2-carboxamide], the IC50 was 0.92 nM.
`CC(C)(O)[C@@H](NC(=O)c1nn2cc(-c3ccc(Cl)c(C(F)F)c3)[nH]c(=O)c2c1C1CC1)c1ccc(F)cc1` [6-666] showed an IC50 of 1.4 nM.
In the case of `Cc1ccc(-c2cn3nc(C(=O)N[C@H](C)C(C)C)c(C(F)(F)F)c3c(=O)[nH]2)cc1Cl` [6-189], the IC50 is reported as 1.35 nM.
With `Cc1ccc(-c2cn3nc(C(=O)NC(CO)c4ccc(F)cc4)c(C(F)(F)F)c3c(=O)[nH]2)cc1Cl` (single isomer, unassigned) [6-155] the IC50 was 2.8 nM.
Work on `Cc1ccc(-c2cn3nc(C(=O)NCC(O)C(F)(F)F)c(C(F)(F)F)c3c(=O)[nH]2)cc1C` (single isomer, unassigned) [6-117] yielded an IC50 of 3.85 nM.
Molecule `COc1ccc([C@@H](NC(=O)c2nn3cc(-c4ccc(C)c(F)c4)[nH]c(=O)c3c2C2CC2)C(F)(F)CO)cn1` [6-400] has an IC50 of 3.65 nM.
`CCN1CCC(NC(=O)c2nn3cc(-c4ccc(C)c(F)c4)[nH]c(=O)c3c2C2CC2)(C(F)(F)F)C1` (single isomer, unassigned) [6-405] gave an IC50 of 4.7 nM.
`Cc1cc(-c2cn3nc(C(=O)NC4(c5ccc(F)cc5)CN(C)C4)c(C(F)(F)C(F)(F)F)c3c(=O)[nH]2)ccc1Cl` [6-480] was tested, and the IC50 was 3.05 nM.
For `CC[C@@H](NC(=O)c1nn2c(C)c(-c3ccc4ccccc4c3)[nH]c(=O)c2c1C)c1ccccc1` [Example 3-33, 3,7-Dimethyl-6-(naphthalen-2-yl)-4-oxo-N-[(7R)-1-phenylpropyl]-4,5-dihydropyrazolo[1,5-a]pyrazine-2-carboxamide], the IC50 was 2.2 nM.
`Cc1cc(-c2cn3nc(C(=O)N[C@H](c4ccc(F)cc4)C(C)(C)O)c(C4CC4)c3c(=O)[nH]2)ccc1C(F)(F)F` [6-134] was tested, and the IC50 was 8.6 nM.
Work on `O=C(NC(CN1CCCC1)c1ccc(F)cc1)c1cc2c(=O)[nH]c(-c3ccc4ccccc4c3)cn2n1` (stereo not shown) [Example 1-44, N-[1-(4-Fluorophenyl)-2-(pyrrolidin-1-yl)ethyl]-6-(2-naphthyl)-4-oxo-5H-pyrazolo[1,5-a]pyrazine-2-carboxamide] yielded an IC50 of 8.97 nM.
`Cc1ncc(-c2cn3nc(C(=O)N[C@@H](c4ccc(F)cc4)C(C)(C)O)c(C4CC4)c3c(=O)[nH]2)cc1Cl` [6-579] showed an IC50 of 0.86 nM.
